Calls of active or inactive are those of the source.
Tests used:
[1] = HEp-2 cell cytotoxicity, dose response, cytotoxicity control for RSV inhibitor project, HTS (AID 2410); type: functional; details: human respiratory syncytial virus
Protein RecA = target: T1, Protein RecA (Mycobacterium tuberculosis, UniProt P9WHJ3); experiment: Fluorescence Cell-Free Homogeneous Dose Retest to Identify Inhibitors of RecA-Intein Splicing Activity. [Related pubchem assays (depositor defined):AID2097, AID2223, AID489010, AID492950]; type: functional
T1 sequence (P9WHJ3 whole entry): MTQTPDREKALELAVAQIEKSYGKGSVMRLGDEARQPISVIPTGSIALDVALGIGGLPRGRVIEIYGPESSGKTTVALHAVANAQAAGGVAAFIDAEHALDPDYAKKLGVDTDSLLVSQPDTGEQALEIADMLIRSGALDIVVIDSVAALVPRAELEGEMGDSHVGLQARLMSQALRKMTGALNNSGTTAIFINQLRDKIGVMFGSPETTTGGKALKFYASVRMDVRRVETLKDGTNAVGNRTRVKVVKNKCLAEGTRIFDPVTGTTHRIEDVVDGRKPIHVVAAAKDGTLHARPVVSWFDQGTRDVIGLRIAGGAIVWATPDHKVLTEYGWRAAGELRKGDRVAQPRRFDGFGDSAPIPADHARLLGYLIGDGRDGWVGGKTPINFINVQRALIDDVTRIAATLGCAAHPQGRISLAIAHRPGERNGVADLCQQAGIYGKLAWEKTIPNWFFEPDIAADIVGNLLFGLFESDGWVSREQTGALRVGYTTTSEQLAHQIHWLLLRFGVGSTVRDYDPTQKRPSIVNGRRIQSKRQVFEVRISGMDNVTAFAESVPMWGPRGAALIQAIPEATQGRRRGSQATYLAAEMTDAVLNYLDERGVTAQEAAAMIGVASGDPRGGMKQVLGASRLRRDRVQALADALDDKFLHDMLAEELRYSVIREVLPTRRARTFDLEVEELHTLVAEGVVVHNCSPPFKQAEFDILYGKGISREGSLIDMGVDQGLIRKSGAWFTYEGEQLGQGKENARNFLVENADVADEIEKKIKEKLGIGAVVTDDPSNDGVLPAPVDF

[2] = target: T2, Replicative DNA helicase DnaB (Mycobacterium tuberculosis, UniProt P9WMR3); experiment: DnaB intein splicing inhibitors, dose response, biochemical, cell-free fluorescence (AID 449749); type: functional
T2 sequence (P9WMR3 whole entry): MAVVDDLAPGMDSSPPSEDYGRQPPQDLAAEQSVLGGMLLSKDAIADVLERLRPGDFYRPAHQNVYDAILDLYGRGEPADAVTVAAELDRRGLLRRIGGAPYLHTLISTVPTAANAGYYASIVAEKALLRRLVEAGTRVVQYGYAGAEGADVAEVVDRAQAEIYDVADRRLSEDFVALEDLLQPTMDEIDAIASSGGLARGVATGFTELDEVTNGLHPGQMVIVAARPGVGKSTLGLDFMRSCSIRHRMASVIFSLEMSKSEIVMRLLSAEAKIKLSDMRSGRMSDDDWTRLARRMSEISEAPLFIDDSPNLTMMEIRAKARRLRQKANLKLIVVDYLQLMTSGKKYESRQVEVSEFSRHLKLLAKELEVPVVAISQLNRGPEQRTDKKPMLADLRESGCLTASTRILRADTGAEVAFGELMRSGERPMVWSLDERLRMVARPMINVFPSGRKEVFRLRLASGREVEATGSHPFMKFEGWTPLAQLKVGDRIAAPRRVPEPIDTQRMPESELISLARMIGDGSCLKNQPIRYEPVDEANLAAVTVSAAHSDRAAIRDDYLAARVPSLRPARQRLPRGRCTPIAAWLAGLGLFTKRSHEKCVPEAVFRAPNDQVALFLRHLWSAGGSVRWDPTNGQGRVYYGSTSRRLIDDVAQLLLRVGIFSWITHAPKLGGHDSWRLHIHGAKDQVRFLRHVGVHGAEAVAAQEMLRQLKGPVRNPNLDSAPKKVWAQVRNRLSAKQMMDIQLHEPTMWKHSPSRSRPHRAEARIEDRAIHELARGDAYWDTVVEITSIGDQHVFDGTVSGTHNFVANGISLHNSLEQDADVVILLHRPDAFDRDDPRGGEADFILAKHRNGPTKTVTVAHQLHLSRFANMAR

[3] = test system: Streptococcus sp. 'group A'; experiment: growth inhibition of control SK(-) GAS strain, dose response, counter-screen for streptokinase expression inhibitor project, luminescence, kanamycin, BacTiterGlo, confirmation (AID 1900); type: functional, organism-based
Streptococcus = experiment: Group A Streptococcus viability loss, dose response, counter-screen for streptokinase expression inhibitor project, luminescence, BacTiterGlo (AID 1915); type: functional, organism-based;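 note: potency for reduction of bacterial viability or growth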
Streptokinase A = target: T3, Streptokinase A (Streptococcus pyogenes serotype M1, UniProt P10520); experiment: S. pyogenes streptokinase expression inhibitors, potency, dose response, plasminogen activation absorbance, OD405 (AID 1914); type: functional, Streptococcus pyogenes M1 GAS;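 note: secreted streptokinase activity via plasminogen activation per viability signal from cell pellet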
T3 sequence (P10520 whole entry): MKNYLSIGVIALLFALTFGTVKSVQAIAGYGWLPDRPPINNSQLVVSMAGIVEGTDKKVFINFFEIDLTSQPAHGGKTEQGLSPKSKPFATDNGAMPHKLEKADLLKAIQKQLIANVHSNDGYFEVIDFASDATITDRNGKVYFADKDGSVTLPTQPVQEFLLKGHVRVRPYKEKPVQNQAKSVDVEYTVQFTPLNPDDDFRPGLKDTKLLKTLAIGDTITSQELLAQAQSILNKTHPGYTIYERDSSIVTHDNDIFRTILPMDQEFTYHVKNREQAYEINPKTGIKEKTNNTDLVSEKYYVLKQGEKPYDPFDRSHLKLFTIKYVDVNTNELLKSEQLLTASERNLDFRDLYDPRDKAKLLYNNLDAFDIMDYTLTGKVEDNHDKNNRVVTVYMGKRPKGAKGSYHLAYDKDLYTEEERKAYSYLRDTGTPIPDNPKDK

[4] = inhibitors of intracellular T. cruzi replication, confirmation, NIH3T3 host cells, beta-gal luminescence (AID 2044); type: functional, cell-based;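 note: intracellular parasites grown in NIH/3T3 mouse fibroblasts as host cells; luminescent beta-galactosidase reporter signal from transgenic T. cruzi replicating inside host cells; inhibitors lower the luminescence signal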
[5] = cytotoxicity toward NIH3T3 fibroblasts, dose response, counter-screen, cell-based, ATP luminescence, mouse fibroblasts (AID 2010); type: functional;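 note: cells exposed to compound for about 90 hours before reading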
BJ [6] = experiment: cytotoxicity toward BJ-TERT-LT-ST fibroblasts, dose response, cell-based, RAS-independent, luminescence (AID 1935); type: functional; details: Homo sapiens;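 note: BJ fibroblasts immortalized with TERT plus LT and ST oncogenes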
BJ [7] = experiment: cytotoxicity toward BJ-TERT fibroblasts, dose response, cell-based, RAS-independent, luminescence (AID 1933); type: functional; details: Homo sapiens
BJ [8] = experiment: cells; type: functional, cell-based; details: Homo sapiens
[9] = cytotoxicity toward DRD oncogenic fibroblasts, dose response, cell-based, non-viral oncogenic, luminescence (AID 1934); type: functional; details: Homo sapiens
[10] = target: T4, Rac GTPase-activating protein 1 (Homo sapiens, UniProt Q9H0H5); experiment: MgcRacGAP GTPase-activating activity inhibitors, confirmation, biochemical, ADP Hunter fluorescence, primary and confirmatory (AID 624330); type: functional
T4 sequence (Q9H0H5 whole entry): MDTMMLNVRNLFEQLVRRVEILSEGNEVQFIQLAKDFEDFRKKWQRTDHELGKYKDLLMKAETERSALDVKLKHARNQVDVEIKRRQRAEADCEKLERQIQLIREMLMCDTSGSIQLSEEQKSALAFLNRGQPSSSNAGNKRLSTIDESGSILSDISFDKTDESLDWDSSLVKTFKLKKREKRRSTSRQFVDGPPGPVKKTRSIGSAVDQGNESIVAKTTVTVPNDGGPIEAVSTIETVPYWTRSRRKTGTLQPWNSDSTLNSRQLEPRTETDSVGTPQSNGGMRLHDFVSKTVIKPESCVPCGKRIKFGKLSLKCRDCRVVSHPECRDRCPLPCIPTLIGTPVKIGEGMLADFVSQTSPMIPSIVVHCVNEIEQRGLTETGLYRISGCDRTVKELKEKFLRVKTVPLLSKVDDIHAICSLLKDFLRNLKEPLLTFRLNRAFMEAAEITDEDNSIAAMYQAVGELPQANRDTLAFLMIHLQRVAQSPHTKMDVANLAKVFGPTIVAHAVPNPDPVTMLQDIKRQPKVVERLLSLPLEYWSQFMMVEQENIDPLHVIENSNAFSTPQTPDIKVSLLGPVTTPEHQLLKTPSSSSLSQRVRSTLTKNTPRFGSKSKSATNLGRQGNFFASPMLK

Cytochrome P450 3A4 = Cytochrome P450 3A4 (Homo sapiens, UniProt P08684);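 note: CYP3A4 tested as one member of a cytochrome P450 panel screen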
Cytochrome P450 2D6 = Cytochrome P450 2D6 (Homo sapiens, UniProt P10635);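 note: CYP2D6 member of a cytochrome P450 panel assay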
Cytochrome P450 1A2 = target: T5, Cytochrome P450 1A2 (Homo sapiens, UniProt P05177);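 note: PubChem cytochrome P450 panel assay, CYP1A2 panel member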
T5 sequence (P05177 whole entry): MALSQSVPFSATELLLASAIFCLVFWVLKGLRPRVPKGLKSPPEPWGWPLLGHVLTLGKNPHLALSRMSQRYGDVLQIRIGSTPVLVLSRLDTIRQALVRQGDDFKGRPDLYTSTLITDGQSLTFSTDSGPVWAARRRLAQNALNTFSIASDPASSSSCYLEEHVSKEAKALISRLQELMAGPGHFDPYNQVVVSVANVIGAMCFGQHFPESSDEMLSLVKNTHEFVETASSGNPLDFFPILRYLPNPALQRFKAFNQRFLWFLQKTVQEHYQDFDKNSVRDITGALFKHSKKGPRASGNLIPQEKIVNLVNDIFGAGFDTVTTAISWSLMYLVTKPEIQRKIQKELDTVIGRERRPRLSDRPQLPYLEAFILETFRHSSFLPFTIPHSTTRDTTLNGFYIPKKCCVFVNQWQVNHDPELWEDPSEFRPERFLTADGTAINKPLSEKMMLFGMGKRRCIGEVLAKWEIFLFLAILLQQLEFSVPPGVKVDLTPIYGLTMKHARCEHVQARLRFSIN

Sequence of Cytochrome P450 2D6 (P10635 whole entry): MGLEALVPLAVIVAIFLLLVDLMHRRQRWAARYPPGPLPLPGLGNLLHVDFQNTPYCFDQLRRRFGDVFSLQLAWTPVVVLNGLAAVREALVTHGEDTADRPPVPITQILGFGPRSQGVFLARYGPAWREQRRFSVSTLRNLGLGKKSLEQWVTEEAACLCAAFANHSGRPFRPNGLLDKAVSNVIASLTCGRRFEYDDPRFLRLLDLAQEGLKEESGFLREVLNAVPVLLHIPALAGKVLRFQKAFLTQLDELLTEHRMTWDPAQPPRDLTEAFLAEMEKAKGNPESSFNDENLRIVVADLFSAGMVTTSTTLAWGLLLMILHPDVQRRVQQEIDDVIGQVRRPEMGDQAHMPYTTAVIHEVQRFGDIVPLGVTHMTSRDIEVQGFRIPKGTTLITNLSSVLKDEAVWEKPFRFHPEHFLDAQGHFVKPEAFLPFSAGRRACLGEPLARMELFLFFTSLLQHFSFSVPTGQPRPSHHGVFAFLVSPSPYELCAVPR
Sequence of Cytochrome P450 3A4 (P08684 whole entry): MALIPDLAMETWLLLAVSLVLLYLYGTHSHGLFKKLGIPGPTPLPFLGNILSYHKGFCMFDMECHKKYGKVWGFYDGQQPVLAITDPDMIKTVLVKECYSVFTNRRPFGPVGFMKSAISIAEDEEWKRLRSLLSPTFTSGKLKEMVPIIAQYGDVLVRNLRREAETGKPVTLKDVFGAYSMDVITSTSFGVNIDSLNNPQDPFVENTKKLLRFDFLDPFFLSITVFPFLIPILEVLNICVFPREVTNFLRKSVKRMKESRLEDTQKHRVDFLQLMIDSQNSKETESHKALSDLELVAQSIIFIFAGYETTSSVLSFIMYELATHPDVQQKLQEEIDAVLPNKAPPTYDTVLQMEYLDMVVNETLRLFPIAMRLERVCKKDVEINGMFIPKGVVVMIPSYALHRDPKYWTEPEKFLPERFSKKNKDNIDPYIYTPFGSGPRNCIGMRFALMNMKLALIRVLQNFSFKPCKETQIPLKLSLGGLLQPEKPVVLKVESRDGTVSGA

SMILES	CC50 [1]	EC50 (Protein RecA)	AC50 [2]	other results
Cc1noc(O)c1N=Nc1ccc2[nH]c(O)nc2c1	22.4 µM (active)			
COc1cc2c(C(=O)N3CCOCC3)c(CSc3ccccc3)n(C)c2cc1Br	20.7 µM (active)			
COc1ccc(/C=C2/C(=O)N(c3ccccc3)N=C2C)c(OC)c1		2.64 µM (active)	3.87 µM (active)	
CCOC(=O)c1sc(Nc2ccc(Br)cc2)nc1C	27.5 µM (active)			
CO/C(O)=C1/C(C)=NC2=C(C(=O)CCC2)C1c1cn(Cc2ccc(Br)cc2)nc1-c1ccccc1 (stereo not drawn)	17.4 µM (active)			
CCc1ccc(NS(=O)(=O)c2ccc3ncc(C(=O)N4CCc5ccccc54)c(O)c3c2)cc1	> 50 µM (active)			
COc1ccc(-c2nc(-c3cc([N+](=O)[O-])ccc3C)c(-c3ccccc3)[nH]2)cc1O	15.1 µM (active)			
O=C(CN1C(=O)S/C(=C\C=C\c2ccccc2)C1=O)Nc1ccccc1C(=O)O		10.8 µM (active)	8.47 µM (active)	EC50 [3]: 5.14 µM (active); EC50 (Streptococcus): 14.9 µM (active); EC50 (Streptokinase A): 4.37 µM (active)
Cc1cccc(C2c3[nH]c4ccccc4c3CCN2Cc2cccn2-c2ncccn2)c1 (stereo not drawn)	20.4 µM (active)			EC50 [4]: 0.647 µM (active); EC50 [5]: 20.7 µM (active)
CCOC(=O)C1CCC2(CC1)C(C#N)=C(N)Oc1[nH]nc(C)c12 (stereo not drawn)		> 380 µM (inactive)	53.1 µM (active)	
CN(CC(=O)Nc1ccc(Cl)c(C(F)(F)F)c1)C(=O)c1cc(-c2ccncc2)nc2ccccc12	20 µM (active)			
CC(=O)NC(c1ccc(Cl)cc1)c1c(O)ccc2ccc(O)cc12 (stereo not drawn)		4.61 µM (active)	> 120 µM (inactive)	
COc1ccc(/C=C2\SC(=S)N(CC(=O)OCC(=O)Nc3cc(Cl)cc(Cl)c3)C2=O)cc1				EC50 (BJ [6]): > 150 µM (not active); EC50 (BJ [7]): > 150 µM (not active); EC50 (BJ [8]): > 150 µM (not active); EC50 [9]: > 150 µM (not active)
CCn1cnc2c([N+](=O)[O-])c(NS(=O)(=O)c3ccc(C)cc3)ccc21				EC50 (BJ [6]): > 150 µM (inconclusive); EC50 (BJ [7]): > 150 µM (not active); EC50 (BJ [8]): > 150 µM (not active); EC50 [9]: > 150 µM (not active)
COc1cc(C2C(C#N)=C(N)Oc3[nH]nc(C)c32)cc2c1OCO2 (stereo not drawn)		1.38 µM (active)	2.11 µM (active)	
COc1cc(/C=C(\C#N)C(=O)c2c[nH]c3ccccc23)cc(OC)c1O		1.18 µM (active)	1.26 µM (active)	IC50 [10]: 43.6 µM (active)
COc1ccc(CN2CCNC(=O)C2CC(=O)N(C)Cc2ccncn2)c(OC)c1 (stereo not drawn)		24.7 µM (active)	89.1 µM (active)	
O=C(NC12CC3CC(CC(C3)C1)C2)c1ccc(COc2ccc(Cl)cc2[N+](=O)[O-])o1	32.4 µM (active)			AC50 (Cytochrome P450 3A4): 15.8 µM (inconclusive); AC50 (Cytochrome P450 2D6): 28.2 µM (inconclusive); AC50 (Cytochrome P450 1A2): 14.1 µM (inconclusive)
CCCCCN1N=C(C)CC1=O		2.79 µM (active)	6.18 µM (active)	
Cc1ccc(-n2nc3c(=O)n(CCCC(=O)NCc4ccccc4Cl)nc(C)c3c2C)cc1	> 50 µM (active)			
